# Data: patent publication US9403832B2, “Pyrazolo[1,5-a]pyrimidine-based compounds, compositions comprising them, and methods of their use” (Lexicon Pharmaceuticals, Inc., priority 2012, dated 2016)
# How the values were obtained:
# [1] = target: T1, AAK1 (Homo sapiens, UniProt Q2M2I8); experiment: P81 filter plate assay; assay type: biochemical; conditions: full-length human AAK1, Mu2 substrate, 33P-ATP
# T1 construct: NP_055726.2
# In short: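 Full-length human AAK1 (0.2 nM, 2×) was pre-incubated 10 min at RT with compounds (top concentration 96 μM in the dilution plate), then reacted 1 h at RT with full-length human Mu2 (0.2 μM, 2×), cold ATP (2 μM, 2×) and ³³P-ATP. Reactions were stopped with phosphoric acid and captured on P81 filters for scintillation counting.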
# [2] = target: T1, AAK1; experiment: HEK281 cell-based assay (CBA); conditions: HEK293F cells transfected with full length human AAK1 and AP2M1; phospho-mu2 Western blot; 3 hours incubation
# Description: HEK293F cells were cultured in media containing DMEM (Gibco, cat. #11965), 10% FBS (SAFC Biosciences, cat. #12103C), 1× GPS (glutamine, penicillin and streptomycin). On day one, cells were plated on a 10 cm dish so that they are ˜80% confluent at time of transfection. Roughly 12 million cells were in a 10 cm dish at time of transfection. On day two, each dish was transfected with 48 ug DNA and 144 ul Lipofectamine 2000 (Invitrogen, cat. #11668-019). The DNA was comprised of a mixture (per 10 cm dish) containing 3 ug AAK1/HA/pIRES (full length human, NCBI accession no. NP_055726.2), 45 μg Flag/AP2MI/pcDNA (full length human), and 1.5 ml OPTI-MEM. The Lipofectamine 2000 is made up of a mixture (per 10 cm dish) containing 144 μl Lipofectamine 2000 and 1.5 ml OPTI-MEM. Each mixture was transferred to individual 15 ml tubes and incubated at RT for 5 minutes, and then the two mixes were combined and incubated at RT for 20 minutes.
# Growth media was then aspirated from each 10 cm plate and replaced with 10 ml of DMEM+10% FBS (no GPS). Finally, 3 ml DNA/Lipofectamine mix was added to each 10 cm dish and mix gently followed by incubate of plate overnight at 37° C. and 5% CO2.
# On day three, compounds were diluted in 100% DMSO at 1000× final concentration, followed by 3-fold serial dilutions for a total of 5 concentrations tested. Four compounds were tested per 10 cm dish. One ul of each compound dilution was then pipetted into a deep-well, 96-well plate, followed by addition of 500 μl DMEM+0.5% FBS into each well for a 2× final concentration of each compound. Cells were resuspended in a 10 cm dish by simple pipetting (HEK293 cells come off the plate that easy at this point) and then transferred to a 50 ml conical tube and pelleted by centrifugation at 1000 rpm for 5 min. Cell pellets were then resuspended in 2.75 ml DMEM+0.5% FBS per 10 cm dish and 100 μl of cell suspension transferred into each well of 96-well TC plate. Finally, 100 μl of 2× compound diluted in DMEM+0.5% FBS was then added into wells containing cell suspension for a 1× final concentration. Plates were then incubated at 37° C. and 5% CO2 for 3 hours followed by transferring of cell suspensions from each well into 12-tube PCR strips. The PCR strips were spun in a tip rack at 1000 rpm for 5 minutes to pellet cells and media was then removed by pipetting without disturbing the cell pellet.
# To prepare for Western Blot analysis, cell pellets were resuspend in 40 ul 1× LDS-PAGE sample buffer (Invitrogen, cat.# NP0008)+2× Halt phophatase and protease inhibitor cocktail (Thermo Scientific, cat. #1861284), followed by sonicating each with microtip sonicator set at 5 for 8-10 seconds. Five ul of 10× NuPage Sample Reducing Agent (with 50 mM DTT) was to each sample followed by heat denaturing at 70 C for 10 min on PCR machine. A total of 10 μl per sample was loaded into each lane of a 4-20% Tris-Glycine Criterion 26-well gel (Biorad, cat. #345-0034) for the phospho-mu2 blot and 10 μl per lane in a 4-12% Bis-Tris (+MES buffer) NuPAGE 26-well gel (Invitrogen, cat.# WG1403BX10) for the mu2 blot. For controls, 2 ng of phospho-mu2 or 20 ng mu2/Flag proteins were loaded in the last well of each gel. After SDS-PAGE, samples on each gel were transferred to PVDF membrane using an iBlot and membranes were blocked for one hour in TBST+5% milk, followed by wash 3× for 5-10 min with TBST. Criterion gels were probed with rabbit anti-phospho-mu2 (1:5000; a rabbit polyclonal antibody produced by New England Peptide and affinity purified at Lexicon) in TBST+5% BSA, whereas, NuPAGE gels were probed with mouse anti-Flag (1:500; Sigma, cat.# F1804) in TBST+5% milk, and these primary antibodies were incubated overnight at 4° C. on a rocker.
# T1 sequence (Q2M2I8 1-863 isoform Q2M2I8-2): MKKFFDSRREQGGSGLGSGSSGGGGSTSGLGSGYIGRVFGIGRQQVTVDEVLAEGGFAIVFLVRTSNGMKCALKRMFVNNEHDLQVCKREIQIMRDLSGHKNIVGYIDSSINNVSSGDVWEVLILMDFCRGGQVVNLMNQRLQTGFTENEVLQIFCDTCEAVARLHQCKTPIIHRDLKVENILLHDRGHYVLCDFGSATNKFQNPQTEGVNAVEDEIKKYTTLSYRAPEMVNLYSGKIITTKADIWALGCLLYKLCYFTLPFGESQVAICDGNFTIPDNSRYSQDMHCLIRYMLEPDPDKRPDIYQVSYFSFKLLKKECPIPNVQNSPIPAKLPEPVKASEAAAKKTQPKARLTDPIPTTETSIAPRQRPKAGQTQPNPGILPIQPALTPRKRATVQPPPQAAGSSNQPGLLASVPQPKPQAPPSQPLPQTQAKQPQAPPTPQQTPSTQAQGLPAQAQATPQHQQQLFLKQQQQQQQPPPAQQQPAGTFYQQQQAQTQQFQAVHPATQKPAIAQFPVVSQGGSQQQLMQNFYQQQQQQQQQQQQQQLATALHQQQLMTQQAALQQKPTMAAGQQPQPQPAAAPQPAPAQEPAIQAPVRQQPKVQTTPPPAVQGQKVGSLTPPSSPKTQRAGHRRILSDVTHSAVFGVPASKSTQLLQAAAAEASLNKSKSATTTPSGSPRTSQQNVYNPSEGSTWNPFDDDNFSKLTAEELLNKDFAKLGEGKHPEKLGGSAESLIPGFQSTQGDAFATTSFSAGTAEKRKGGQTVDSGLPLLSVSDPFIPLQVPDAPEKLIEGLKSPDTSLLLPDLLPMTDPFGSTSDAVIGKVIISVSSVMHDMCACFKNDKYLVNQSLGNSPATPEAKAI
Compound,IC50 [1],IC50 [2]
"COC[C@H](C)OC(=O)N1CCN(c2ccn3ncc(-c4cccnc4OC)c3n2)CC1 [(S)-1-methoxypropan-2-yl 4-(3-(2-methoxypyridin-3-yl)pyrazolo[1,5-a]pyrimidin-5-yl)piperazine-1-carboxylate]",≤ 10 nM,≤ 10 nM
"CCOC(=O)N1CCC[C@H]1CNc1ccn2ncc(-c3ccccc3OC)c2n1 [(S)-ethyl 2-(((3-(2-methoxyphenyl)pyrazolo[1,5-a]pyrimidin-5-yl)amino)methyl)pyrrolidine-1-carboxylate]",≤ 10 nM,≤ 10 nM
"COc1ncccc1-c1cnn2ccc(NC[C@@H]3CCCN3C(=O)OC(C)C)nc12 [(S)-isopropyl 2-(((3-(2-methoxypyridin-3-yl)pyrazolo[1,5-a]pyrimidin-5-yl)amino)methyl)pyrrolidine-1-carboxylate]",≤ 10 nM,≤ 10 nM
"CC(C)OC(=O)N1CCN(c2ccn3ncc(-c4ccc(OCCN)cc4)c3n2)CC1 [isopropyl 4-(3-(4-(2-aminoethoxy)phenyl)pyrazolo[1,5-a]pyrimidin-5-yl)piperazine-1-carboxylate]",≤ 10 nM,≤ 100 nM
"COc1ncccc1-c1cnn2ccc(N3CC[C@H](N(C)C(=O)[C@@H](N)CC(C)C)C3)nc12 [(S)-2-amino-N-((S)-1-(3-(2-methoxypyridin-3-yl)pyrazolo[1,5-a]pyrimidin-5-yl)pyrrolidin-3-yl)-N,4-dimethylpentanamide]",≤ 10 nM,≤ 10 nM
"COc1ncccc1-c1cnn2ccc(N3CCN(C(=O)[C@@H]4CCCN4)CC3)nc12 [(S)-(4-(3-(2-methoxypyridin-3-yl)pyrazolo[1,5-a]pyrimidin-5-yl)piperazin-1-yl)(pyrrolidin-2-yl)methanone]",≤ 10 nM,≤ 100 nM
"CCCOC(=O)N1CCN(c2ccn3ncc(-c4ccc(C)nc4OC)c3n2)CC1 [propyl 4-(3-(2-methoxy-6-methylpyridin-3-yl)pyrazolo[1,5-a]pyrimidin-5-yl)piperazine-1-carboxylate]",≤ 10 nM,≤ 10 nM
"COc1ccc(F)cc1-c1cnn2ccc(N3CCN(C(=O)[C@@H](N)C(C)C)CC3)nc12 [(S)-2-amino-1-(4-(3-(5-fluoro-2-methoxyphenyl)pyrazolo[1,5-a]pyrimidin-5-yl)piperazin-1-yl)-3-methylbutan-1-one]",≤ 10 nM,≤ 10 nM
"COc1cccc(-c2cnn3ccc(N4CCN(C(=O)OC(C)C)CC4)nc23)n1 [isopropyl 4-(3-(6-methoxypyridin-2-yl)pyrazolo[1,5-a]pyrimidin-5-yl)piperazine-1-carboxylate]",≤ 10 nM,≤ 100 nM
"COc1nc(C)ccc1-c1cnn2ccc(N(C)CCCN(C)C(=O)OC(C)C)nc12 [isopropyl (3-((3-(2-methoxy-6-methylpyridin-3-yl)pyrazolo[1,5-a]pyrimidin-5-yl)(methyl)amino)propyl)(methyl)carbamate]",≤ 10 nM,≤ 100 nM
"COc1ncccc1-c1cnn2ccc(N3CCN(C(=O)OC(C)(C)C)CC3)nc12 [tert-butyl 4-(3-(2-methoxypyridin-3-yl)pyrazolo[1,5-a]pyrimidin-5-yl)piperazine-1-carboxylate]",≤ 10 nM,≤ 10 nM
"COc1ccccc1-c1cnn2ccc(N3CCN(C(=O)[C@@H](N)C(C)(C)C)CC3)nc12 [(S)-2-amino-1-(4-(3-(2-methoxyphenyl)pyrazolo[1,5-a]pyrimidin-5-yl)piperazin-1-yl)-3,3-dimethylbutan-1-one]",≤ 10 nM,≤ 10 nM
"COc1ncccc1-c1cnn2ccc(NCCCOC(C)(C)C)nc12 [N-(3-(tert-butoxy)propyl)-3-(2-methoxypyridin-3-yl)pyrazolo[1,5-a]pyrimidin-5-amine]",≤ 10 nM,≤ 100 nM
"COCCOC(=O)N1CCN(c2ccn3ncc(-c4cc(F)cnc4OC)c3n2)CC1 [2-methoxyethyl 4-(3-(5-fluoro-2-methoxypyridin-3-yl)pyrazolo[1,5-a]pyrimidin-5-yl)piperazine-1-carboxylate]",≤ 10 nM,≤ 100 nM
"COc1ncccc1-c1cnn2ccc(N3CCN(C(=O)[C@@H](N)C(C)(C)C)CC3)nc12 [(S)-2-amino-1-(4-(3-(2-methoxypyridin-3-yl)pyrazolo[1,5-a]pyrimidin-5-yl)piperazin-1-yl)-3,3-dimethylbutan-1-one]",≤ 10 nM,≤ 10 nM
"COc1ncc(F)cc1-c1cnn2ccc(N3CCN(C(=O)OC(C)(C)C)CC3)nc12 [tert-butyl 4-(3-(5-fluoro-2-methoxypyridin-3-yl)pyrazolo[1,5-a]pyrimidin-5-yl)piperazine-1-carboxylate]",≤ 10 nM,≤ 100 nM
"COCC(C)(C)OC(=O)N1CCN(c2ccn3ncc(-c4cccnc4OC)c3n2)CC1 [1-methoxy-2-methylpropan-2-yl 4-(3-(2-methoxypyridin-3-yl)pyrazolo[1,5-a]pyrimidin-5-yl)piperazine-1-carboxylate]",≤ 10 nM,≤ 1000 nM
"CN[C@@H](CC(C)C)C(=O)N1CCN(c2ccn3ncc(-c4cccnc4OC)c3n2)CC1 [(S)-1-(4-(3-(2-methoxypyridin-3-yl)pyrazolo[1,5-a]pyrimidin-5-yl)piperazin-1-yl)-4-methyl-2-(methylamino)pentan-1-one]",≤ 10 nM,≤ 10 nM
"Cc1ccc(-c2cnn3ccc(N4CCN(C(=O)[C@@H](N)C(C)C)CC4)nc23)c(F)c1 [(S)-2-amino-1-(4-(3-(2-fluoro-4-methylphenyl)pyrazolo[1,5-a]pyrimidin-5-yl)piperazin-1-yl)-3-methylbutan-1-one]",≤ 10 nM,≤ 100 nM
"COc1ccc(F)cc1-c1cnn2ccc(N3CC[C@H](N(C)C(=O)OC(C)C)C3)nc12 [(S)-isopropyl (1-(3-(5-fluoro-2-methoxyphenyl)pyrazolo[1,5-a]pyrimidin-5-yl)pyrrolidin-3-yl)(methyl)carbamate]",≤ 10 nM,≤ 100 nM
"COc1ncccc1-c1cnn2ccc(N3CCN(C(=O)O[C@H]4CCOC4)CC3)nc12 [(S)-tetrahydrofuran-3-yl 4-(3-(2-methoxypyridin-3-yl)pyrazolo[1,5-a]pyrimidin-5-yl)piperazine-1-carboxylate]",≤ 10 nM,≤ 10 nM
"COc1cccc(-c2cnn3ccc(NC[C@@H]4CCCN4C(=O)OC(C)(C)C)nc23)c1 [(S)-tert-butyl 2-(((3-(3-methoxyphenyl)pyrazolo[1,5-a]pyrimidin-5-yl)amino)methyl)pyrrolidine-1-carboxylate]",≤ 10 nM,≤ 10 nM
"CC(C)[C@H](N)C(=O)N1CCN(c2ccn3ncc(-c4cc(F)ccc4F)c3n2)CC1 [(S)-2-amino-1-(4-(3-(2,5-difluorophenyl)pyrazolo[1,5-a]pyrimidin-5-yl)piperazin-1-yl)-3-methylbutan-1-one]",≤ 10 nM,≤ 10 nM
"CCOC(=O)N1CCN(c2ccn3ncc(-c4cc(C)cnc4OC)c3n2)CC1 [ethyl 4-(3-(2-methoxy-5-methylpyridin-3-yl)pyrazolo[1,5-a]pyrimidin-5-yl)piperazine-1-carboxylate]",≤ 10 nM,≤ 100 nM
